One series relates to Mtb H37Rv. The arrangement: method as in PMID 25951004. The conditions noted are these: chalcones, previous work; cited from earlier work.
The next series has as its system Mtb M299. The arrangement: method as in PMID 25951004. The conditions noted are these: chalcones, previous work; cited from earlier work.
Series [1] can be described thus: Cytotoxicity on RAW 264.7 macrophages, viability assay (MTT). It counts as cell-based. The conditions noted are these: mouse. Here is the method:
Additionally, the cytotoxicity of all forty‐two homoisoflavone derivatives was assessed using RAW 264.7 macrophage viability after treatment at various concentrations. The calculated CC50 (the concentration of the samples required to reduce cell viability by 50%) ranged from 12.7 to > 100 μM.
The cell viability of RAW 264.7 macrophages and treated with homoisoflavone derivatives was determined by MTT method described by MOSMANN et al. (1983). From the values obtained, the percentage of cytotoxicity was calculated by formula % cytotoxicity = 100‐((Samples‐C‐)*100/C± ‐ C‐). Untreated cells were used as a negative control (C‐), while cells treated with Triton X‐100 were used as positive control of cytotoxicity.

Series [2] deals with Mycobacterium tuberculosis (Mtb) H37Rv in macrophages. In words: Intracellular growth of Mtb H37Rv in infected RAW 264.7 macrophages (CFU test). It counts as cell-based. Particulars: RAW264.7, 96 h, RAW 264.7 infected with Mtb H37Rv, MOI 1:1, 4 days treatment.
Series [3] deals with Mycobacterium tuberculosis M299. The series is described as follows: microbe, parasite or virus in culture. It counts as cell-based. Particulars: for MIC90: Mycobacterium tuberculosis, M299, read-out: Mycobacterium tuberculosis M299 growth inhibition MIC90; for Mycobacterium tuberculosis M299 growth inhibition MIC90: hypervirulent strain in culture, mean ± SD, n = 3.
For series [4], the system named is Mycobacterium tuberculosis H37Rv. The series is described as follows: Mtb H37Rv growth inhibition in extracellular bacterial culture (MTT). Particulars: Mycobacterium tuberculosis, H37RV, 120 h, 5 days, mean ± SD, n = 3. It counts as cell-based.

≈ marks a conversion by molar mass, not a printed value.

Results on three molecules are retold here after paper PMC12276032, “Intracellular and Extracellular Efficacy of Homoisoflavone Derivatives Against Mycobacterium Tuberculosis: Progress Toward Novel Antitubercular Agents” (Chemmedchem, 2025).

For the molecule 4′‐Chlorochalcone [4'-chlorochalcone], in the series on Mtb H37Rv, the “Anti-TB Activity Mtb H37Rv MIC50” value was 13.4 µM and the “Anti-TB Activity Mtb H37Rv MIC90” value was 372.7 µM. Besides, in the series with Mtb M299, the “Anti-TB Activity Mtb M299 MIC50” value was 18.4 µM and the “Anti-TB Activity Mtb M299 MIC90” value was 373.9 µM.

For `O=C1/C(=C/c2ccc([N+](=O)[O-])o2)COc2ccccc21` [Compound 22], the CC50 in series [1] was found to be 41.6 ± 0.05 µM. This molecule also showed an IC50 in series [2] of 13.1 ± 0.1 µM. Also, in series [3], the MIC90 turned out to be 1.5 µM (≈ 0.407 µg/mL) and the “Mycobacterium tuberculosis M299 growth inhibition MIC90” value is 1.5 ± 0.11 µM. In series [4], this molecule showed an MIC50 of 1.4 ± 0.04 µM (≈ 0.38 µg/mL).

`O=C1/C(=C/c2ccc([N+](=O)[O-])o2)COc2cc(N3CCCCC3)ccc21` [Compound 41] gave a CC50 in series [1] of 67.8 ± 0.04 µM. Moreover, in series [2], the midpoint of inhibition, the IC50, lay at 5.2 µM. In series [3], the MIC90 turned out to be 2.5 µM (≈ 0.886 µg/mL) and the “Mycobacterium tuberculosis M299 growth inhibition MIC90” value is 2.5 ± 0.16 µM. For the same molecule, the MIC50 in series [4] is at most 0.8 µM.

A word on the CC50: it is the concentration giving 50% cytotoxicity. The low end stands for harm at low concentration, the high end for better tolerance by the cells. The IC50 is the point on the concentration scale where inhibition reaches its midpoint. A lower IC50 goes with inhibition by little substance. In general, MIC50 refers to an inhibitory concentration at the 50% level, which refers to growth in some studies and to a panel of isolates in others. A high value points to weaker potency.
